Results reported in article PMC11233931, “Remodeling tumor‐associated macrophage for anti‐cancer effects by rational design of irreversible inhibition of mitogen‐activated protein kinase‐activated protein kinase 2” (MedComm, 2024).

How the values were obtained:
Assay in all cases: Eurofins kinase selectivity profile against 380 other human recombinant kinases (Table S2)
Assay type in all cases: biochemical
[1] = target: T1, 380 human recombinant protein kinases (Homo sapiens, UniProt P53779); settings: JNK3(h), read-out: Inhibition rate
T1 construct: purchased Eurofins (Celle Lévescault)
Summary of the method: (§1)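 Selectivity panel of 380 human recombinant protein kinases, screened by Eurofins at a range of concentrations.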

[2] = target: T2, 380 human recombinant protein kinases (Homo sapiens, UniProt P29597); settings: TYK2(h), read-out: Inhibition rate (%)
T2 construct: purchased Eurofins (Celle Lévescault)
Summary of the method: as §1

[3] = target: T3, 380 human recombinant protein kinases (Homo sapiens, UniProt Q92772); settings: CDKL2(h), read-out: Inhibition rate
T3 construct: purchased Eurofins (Celle Lévescault)
T3 sequence (Q92772 1-493): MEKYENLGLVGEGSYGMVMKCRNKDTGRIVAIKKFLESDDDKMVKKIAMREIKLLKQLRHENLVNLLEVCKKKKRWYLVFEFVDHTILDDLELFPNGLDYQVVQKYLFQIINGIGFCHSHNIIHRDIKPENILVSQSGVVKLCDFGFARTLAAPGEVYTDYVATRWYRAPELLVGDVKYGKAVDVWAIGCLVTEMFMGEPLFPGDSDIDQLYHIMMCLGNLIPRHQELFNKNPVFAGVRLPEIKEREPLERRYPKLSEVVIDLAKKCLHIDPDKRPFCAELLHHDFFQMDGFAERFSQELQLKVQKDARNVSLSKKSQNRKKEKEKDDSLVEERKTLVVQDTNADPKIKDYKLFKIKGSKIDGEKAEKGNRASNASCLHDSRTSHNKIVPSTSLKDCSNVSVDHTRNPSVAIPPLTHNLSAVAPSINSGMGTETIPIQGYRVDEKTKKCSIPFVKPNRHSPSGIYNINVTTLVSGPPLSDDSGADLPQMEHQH
Summary of the method: as §1

[4] = target: T4, 380 human recombinant protein kinases (Homo sapiens, UniProt Q16654); settings: PDHK4(h), read-out: Inhibition rate
T4 construct: purchased Eurofins (Celle Lévescault)
Summary of the method: as §1

[5] = target: T5, 380 human recombinant protein kinases (Homo sapiens, UniProt Q8IU85); settings: CaMKIδ(h), read-out: Inhibition rate
T5 construct: purchased Eurofins (Celle Lévescault)
Summary of the method: as §1

[6] = target: T6, 380 human recombinant protein kinases (Homo sapiens, UniProt Q9UEW8); settings: STK39(h), read-out: Inhibition rate (%)
T6 construct: purchased Eurofins (Celle Lévescault)
Summary of the method: as §1

[7] = target: T7, 380 human recombinant protein kinases (Homo sapiens, UniProt Q9Y6M4); settings: CK1γ3(h), read-out: Inhibition rate
T7 construct: purchased Eurofins (Celle Lévescault)
Summary of the method: as §1

[8] = target: T8, 380 human recombinant protein kinases (Homo sapiens, UniProt Q5VT25); settings: MRCKα(h), read-out: Inhibition rate
T8 construct: purchased Eurofins (Celle Lévescault)
Summary of the method: as §1

[9] = target: T9, 380 human recombinant protein kinases (Homo sapiens, UniProt P50613); settings: CDK7/cyclinH/MAT1(h), read-out: Inhibition rate
T9 construct: purchased Eurofins (Celle Lévescault)
Summary of the method: as §1

[10] = target: T10, 380 human recombinant protein kinases (Homo sapiens, UniProt Q15746); settings: MLCK(h), read-out: Inhibition rate
T10 construct: purchased Eurofins (Celle Lévescault)
Summary of the method: as §1

[11] = target: T11, 380 human recombinant protein kinases (Homo sapiens, UniProt Q5S007); settings: LRRK2(h), read-out: Inhibition rate
T11 construct: purchased Eurofins (Celle Lévescault)
Summary of the method: as §1

[12] = target: T12, 380 human recombinant protein kinases (Homo sapiens, UniProt P04049); settings: c-RAF(h), read-out: Inhibition rate
T12 construct: purchased Eurofins (Celle Lévescault)
Summary of the method: as §1

[13] = target: T13, 380 human recombinant protein kinases (Homo sapiens, UniProt Q9Y243); settings: PKBγ(h), read-out: Inhibition rate
T13 construct: purchased Eurofins (Celle Lévescault)
Summary of the method: as §1

T4 sequence (Q16654 whole entry): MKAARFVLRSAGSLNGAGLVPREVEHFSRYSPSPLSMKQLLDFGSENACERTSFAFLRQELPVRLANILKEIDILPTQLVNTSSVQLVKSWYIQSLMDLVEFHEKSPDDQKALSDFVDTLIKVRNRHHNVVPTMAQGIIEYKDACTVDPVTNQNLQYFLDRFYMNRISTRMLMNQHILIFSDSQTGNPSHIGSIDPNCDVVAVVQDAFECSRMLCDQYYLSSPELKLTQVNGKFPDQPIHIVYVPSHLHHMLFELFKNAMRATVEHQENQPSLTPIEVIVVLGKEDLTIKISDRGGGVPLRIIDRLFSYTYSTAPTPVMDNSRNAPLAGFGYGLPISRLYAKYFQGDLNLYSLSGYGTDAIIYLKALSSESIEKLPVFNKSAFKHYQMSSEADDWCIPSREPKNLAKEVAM
T5 sequence (Q8IU85 whole entry): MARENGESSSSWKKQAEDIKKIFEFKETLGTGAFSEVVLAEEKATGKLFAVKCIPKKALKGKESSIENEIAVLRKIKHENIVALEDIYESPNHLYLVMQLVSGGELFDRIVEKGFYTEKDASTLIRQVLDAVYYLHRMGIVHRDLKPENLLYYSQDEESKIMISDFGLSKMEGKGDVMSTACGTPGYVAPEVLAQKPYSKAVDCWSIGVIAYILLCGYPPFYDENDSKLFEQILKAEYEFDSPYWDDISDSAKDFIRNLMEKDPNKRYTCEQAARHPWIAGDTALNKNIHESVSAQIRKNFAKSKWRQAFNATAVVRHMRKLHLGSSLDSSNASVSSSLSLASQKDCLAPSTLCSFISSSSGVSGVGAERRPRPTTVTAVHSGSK
T13 sequence (Q9Y243 whole entry): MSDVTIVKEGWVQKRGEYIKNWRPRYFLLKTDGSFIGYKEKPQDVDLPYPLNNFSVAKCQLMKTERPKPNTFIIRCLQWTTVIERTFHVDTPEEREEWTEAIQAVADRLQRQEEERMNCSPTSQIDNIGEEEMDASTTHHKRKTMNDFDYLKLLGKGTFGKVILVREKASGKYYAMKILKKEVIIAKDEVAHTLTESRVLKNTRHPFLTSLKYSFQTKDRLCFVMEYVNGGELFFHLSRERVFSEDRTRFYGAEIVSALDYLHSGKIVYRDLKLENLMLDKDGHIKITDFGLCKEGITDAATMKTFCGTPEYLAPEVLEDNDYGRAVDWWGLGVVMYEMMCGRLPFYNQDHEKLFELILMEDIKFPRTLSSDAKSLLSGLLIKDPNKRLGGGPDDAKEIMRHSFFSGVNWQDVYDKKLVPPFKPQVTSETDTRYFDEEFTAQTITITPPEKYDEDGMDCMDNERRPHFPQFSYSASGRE
T10 sequence (Q15746 whole entry): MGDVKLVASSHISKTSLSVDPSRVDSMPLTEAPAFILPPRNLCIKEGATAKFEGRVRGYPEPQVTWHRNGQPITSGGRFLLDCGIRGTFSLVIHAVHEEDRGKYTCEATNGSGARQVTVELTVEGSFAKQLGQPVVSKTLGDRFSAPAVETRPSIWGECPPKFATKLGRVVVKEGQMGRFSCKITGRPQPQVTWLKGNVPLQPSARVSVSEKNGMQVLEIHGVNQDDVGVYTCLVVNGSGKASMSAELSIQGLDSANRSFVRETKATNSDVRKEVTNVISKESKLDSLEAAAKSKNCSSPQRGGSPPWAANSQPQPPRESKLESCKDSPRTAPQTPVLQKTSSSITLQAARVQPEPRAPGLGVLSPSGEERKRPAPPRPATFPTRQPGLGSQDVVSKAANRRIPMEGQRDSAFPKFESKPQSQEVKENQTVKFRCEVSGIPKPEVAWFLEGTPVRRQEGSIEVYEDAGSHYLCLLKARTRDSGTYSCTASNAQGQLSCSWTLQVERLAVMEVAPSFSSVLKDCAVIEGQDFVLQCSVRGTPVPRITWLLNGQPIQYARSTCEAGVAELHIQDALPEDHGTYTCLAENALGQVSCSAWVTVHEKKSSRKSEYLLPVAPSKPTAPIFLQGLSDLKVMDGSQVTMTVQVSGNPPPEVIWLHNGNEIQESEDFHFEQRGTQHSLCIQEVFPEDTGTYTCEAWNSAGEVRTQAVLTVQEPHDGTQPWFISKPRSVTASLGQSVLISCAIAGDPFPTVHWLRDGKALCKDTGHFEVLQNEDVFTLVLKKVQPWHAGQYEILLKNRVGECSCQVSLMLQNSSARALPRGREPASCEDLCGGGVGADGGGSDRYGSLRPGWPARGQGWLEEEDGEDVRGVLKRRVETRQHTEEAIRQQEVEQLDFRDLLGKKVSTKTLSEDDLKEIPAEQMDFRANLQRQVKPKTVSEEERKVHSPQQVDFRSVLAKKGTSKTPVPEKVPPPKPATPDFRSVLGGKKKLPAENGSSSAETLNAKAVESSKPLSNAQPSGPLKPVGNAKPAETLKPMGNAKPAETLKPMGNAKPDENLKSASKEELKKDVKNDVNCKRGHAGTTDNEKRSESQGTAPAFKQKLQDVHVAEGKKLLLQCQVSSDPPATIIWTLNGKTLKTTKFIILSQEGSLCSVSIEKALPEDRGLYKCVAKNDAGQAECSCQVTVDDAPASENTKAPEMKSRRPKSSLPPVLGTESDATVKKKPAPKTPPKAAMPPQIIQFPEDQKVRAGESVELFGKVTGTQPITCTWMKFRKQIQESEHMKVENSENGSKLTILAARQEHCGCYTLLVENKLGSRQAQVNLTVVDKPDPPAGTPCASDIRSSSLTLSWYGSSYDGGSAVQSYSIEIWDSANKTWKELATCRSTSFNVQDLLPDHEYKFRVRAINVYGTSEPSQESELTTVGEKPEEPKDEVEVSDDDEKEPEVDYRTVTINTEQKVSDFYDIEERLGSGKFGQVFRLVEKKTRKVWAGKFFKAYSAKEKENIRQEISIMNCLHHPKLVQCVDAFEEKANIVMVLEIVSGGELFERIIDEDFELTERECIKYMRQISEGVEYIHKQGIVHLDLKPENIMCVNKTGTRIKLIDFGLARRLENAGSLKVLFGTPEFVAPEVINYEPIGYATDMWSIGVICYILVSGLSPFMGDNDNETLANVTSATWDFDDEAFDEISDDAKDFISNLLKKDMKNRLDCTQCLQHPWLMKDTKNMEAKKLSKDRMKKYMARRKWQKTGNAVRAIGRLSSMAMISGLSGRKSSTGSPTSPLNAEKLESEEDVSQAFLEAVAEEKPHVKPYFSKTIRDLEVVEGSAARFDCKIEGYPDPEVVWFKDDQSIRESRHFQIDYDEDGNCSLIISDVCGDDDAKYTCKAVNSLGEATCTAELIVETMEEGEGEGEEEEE
T8 sequence (Q5VT25 whole entry): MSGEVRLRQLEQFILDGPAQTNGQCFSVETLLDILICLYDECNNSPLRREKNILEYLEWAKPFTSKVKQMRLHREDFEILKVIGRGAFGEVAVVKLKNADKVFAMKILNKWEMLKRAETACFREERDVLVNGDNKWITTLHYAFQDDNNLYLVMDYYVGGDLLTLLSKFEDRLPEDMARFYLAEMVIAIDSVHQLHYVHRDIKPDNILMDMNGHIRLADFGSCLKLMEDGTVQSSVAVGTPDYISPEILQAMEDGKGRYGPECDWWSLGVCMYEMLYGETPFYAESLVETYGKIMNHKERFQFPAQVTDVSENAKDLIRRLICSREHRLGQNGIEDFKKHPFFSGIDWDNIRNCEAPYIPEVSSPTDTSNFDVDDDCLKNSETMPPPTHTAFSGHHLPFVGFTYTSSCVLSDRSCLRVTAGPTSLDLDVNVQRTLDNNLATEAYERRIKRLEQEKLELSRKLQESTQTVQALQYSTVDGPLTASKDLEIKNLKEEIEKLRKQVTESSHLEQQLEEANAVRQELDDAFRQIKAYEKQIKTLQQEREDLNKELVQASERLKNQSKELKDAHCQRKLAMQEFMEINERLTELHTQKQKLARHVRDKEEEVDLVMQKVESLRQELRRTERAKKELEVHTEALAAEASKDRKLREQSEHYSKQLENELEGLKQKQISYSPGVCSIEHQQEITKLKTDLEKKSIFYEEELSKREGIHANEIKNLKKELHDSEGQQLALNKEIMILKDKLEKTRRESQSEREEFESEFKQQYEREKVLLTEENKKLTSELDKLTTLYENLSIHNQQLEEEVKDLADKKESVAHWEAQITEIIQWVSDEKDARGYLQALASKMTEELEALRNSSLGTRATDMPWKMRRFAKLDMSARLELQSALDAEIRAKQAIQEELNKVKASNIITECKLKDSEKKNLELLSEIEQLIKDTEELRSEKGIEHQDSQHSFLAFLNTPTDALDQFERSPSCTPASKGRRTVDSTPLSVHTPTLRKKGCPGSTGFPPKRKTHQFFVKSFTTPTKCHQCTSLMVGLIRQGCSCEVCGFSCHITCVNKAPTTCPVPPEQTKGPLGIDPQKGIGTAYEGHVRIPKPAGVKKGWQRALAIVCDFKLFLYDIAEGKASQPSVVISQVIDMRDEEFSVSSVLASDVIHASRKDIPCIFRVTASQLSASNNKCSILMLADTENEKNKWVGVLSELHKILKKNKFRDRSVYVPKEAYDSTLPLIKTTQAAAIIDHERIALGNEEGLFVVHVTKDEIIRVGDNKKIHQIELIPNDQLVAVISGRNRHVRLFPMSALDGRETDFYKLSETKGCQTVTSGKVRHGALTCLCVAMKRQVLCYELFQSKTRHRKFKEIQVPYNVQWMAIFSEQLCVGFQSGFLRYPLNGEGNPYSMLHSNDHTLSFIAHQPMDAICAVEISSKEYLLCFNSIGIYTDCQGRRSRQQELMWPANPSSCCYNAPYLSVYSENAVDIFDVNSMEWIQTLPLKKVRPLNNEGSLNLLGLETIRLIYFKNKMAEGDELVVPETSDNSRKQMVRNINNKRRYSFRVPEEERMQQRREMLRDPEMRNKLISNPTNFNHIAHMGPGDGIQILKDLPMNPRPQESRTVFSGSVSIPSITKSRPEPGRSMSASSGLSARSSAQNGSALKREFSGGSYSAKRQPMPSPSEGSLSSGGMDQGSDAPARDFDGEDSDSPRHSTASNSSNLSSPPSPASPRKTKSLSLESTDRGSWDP

C=CC(=O)Nc1cc(-c2cc(-c3cc4c([nH]3)CCNC4=O)ccn2)ccc1OC(F)(F)F [compound 11]
inhibition at 0.01 µM ([1]; 10 nM): 4%
inhibition at 0.1 µM ([1]; 100 nM): 6%
inhibition at 1 µM ([1]; 1000 nM): 38%
inhibition at 0.01 µM ([2]; 10 nM): 1%
inhibition at 0.1 µM ([2]; 100 nM): 10%
inhibition at 1 µM ([2]; 1000 nM): 14%
inhibition at 0.01 µM ([3]; 10 nM): 31%
inhibition at 0.1 µM ([3]; 100 nM): 50%
inhibition at 1 µM ([3]; 1000 nM): 54%
inhibition at 0.01 µM ([4]; 10 nM): -5%
inhibition at 0.1 µM ([4]; 100 nM): -7%
inhibition at 1 µM ([4]; 1000 nM): -19%
inhibition at 0.01 µM ([5]; 10 nM): -3%
inhibition at 0.1 µM ([5]; 100 nM): -6%
inhibition at 1 µM ([5]; 1000 nM): 1%
inhibition at 0.01 µM ([6]; 10 nM): -10%
inhibition at 0.1 µM ([6]; 100 nM): -4%
inhibition at 1 µM ([6]; 1000 nM): 5%
inhibition at 0.01 µM ([7]; 10 nM): -13%
inhibition at 0.1 µM ([7]; 100 nM): 15%
inhibition at 1 µM ([7]; 1000 nM): 67%
inhibition at 0.01 µM ([8]; 10 nM): -5%
inhibition at 0.1 µM ([8]; 100 nM): -3%
inhibition at 1 µM ([8]; 1000 nM): -3%
inhibition at 0.01 µM ([9]; 10 nM): 5%
inhibition at 0.1 µM ([9]; 100 nM): -1%
inhibition at 1 µM ([9]; 1000 nM): -2%
inhibition at 0.01 µM ([10]; 10 nM): -10%
inhibition at 0.1 µM ([10]; 100 nM): 0%
inhibition at 1 µM ([10]; 1000 nM): 34%
inhibition at 0.01 µM ([11]; 10 nM): -4%
inhibition at 0.1 µM ([11]; 100 nM): 17%
inhibition at 1 µM ([11]; 1000 nM): 74%
inhibition at 0.01 µM ([12]; 10 nM): -1%
inhibition at 0.1 µM ([12]; 100 nM): 2%
inhibition at 1 µM ([12]; 1000 nM): 1%
inhibition at 0.01 µM ([13]; 10 nM): 0%
inhibition at 0.1 µM ([13]; 100 nM): 3%
inhibition at 1 µM ([13]; 1000 nM): 9%
